row,SMILES,melting point
1,"CCc1[nH]n(-c2c(Cl)cc(Cl)cc2Cl)c2nc(C(O)c3ccccc3)nc(=O)c1-2 (racemic) [Example 117, (+/−)-1-(2,4,6-Trichlorophenyl)-3-ethyl-6-(α-hydroxybenzyl)pyrazolo[3,4-d]pyrimidin-4-one]",246 to 248 °C
2,"COc1cccc(Cc2nc3n(-c4c(Cl)cc(Cl)cc4Cl)[nH]c(SC)c-3c(=O)n2)c1 [Example 1, 1-(2,4,6-Trichlorophenyl)-3-(methylthio)-6-(3-methoxybenzyl)pyrazolo[3,4-d]pyrimidin-4-one]",245 to 248 °C
3,"CSc1[nH]n(-c2c(Cl)cc(Cl)cc2Cl)c2nc(Cc3cccc(O)c3)nc(=O)c1-2 [Example 2, 1-(2,4,6-Trichlorophenyl)-3-(methylthio)-6-(3-hydroxybenzyl)pyrazolo[3,4-d]pyrimidin-4-one]",264 to 266 °C
4,CSc1nn(-c2c(Cl)cc(Cl)cc2Cl)c2nc(Cc3ccncc3)[nH]c(=O)c12 [Example 5],283 to 287 °C
5,COc1ccc(Cc2nc3c(c(SC)nn3-c3c(Cl)cc(Cl)cc3Cl)c(=O)[nH]2)cc1OC [Example 6],226 to 230 °C
6,CSc1nn(-c2c(Cl)cc(Cl)cc2Cl)c2nc(Cc3cccc([N+](=O)[O-])c3)[nH]c(=O)c12 [Example 7],243 to 255 °C
7,COc1ccc(Cc2nc3c(c(SC)nn3-c3c(Cl)cc(Cl)cc3Cl)c(=O)[nH]2)cc1 [Example 8],263 to 267 °C
8,CSc1nn(-c2c(Cl)cc(Cl)cc2Cl)c2nc(Cc3ccc(O)cc3)[nH]c(=O)c12 [Example 9],294 to 296 °C
9,CSc1nn(-c2c(Cl)cc(Cl)cc2Cl)c2nc(Cc3ccc4c(c3)OCO4)[nH]c(=O)c12 [Example 13],257 to 260 °C
10,CCc1nn(-c2c(Cl)cc(Cl)cc2Cl)c2nc(Cc3c[nH]c4ccccc34)[nH]c(=O)c12 [Example 18],296 to 299 °C
11,CCc1nn(-c2c(Cl)cc(Cl)cc2Cl)c2nc(Cc3cc(OC)c(OC)c(OC)c3)[nH]c(=O)c12 [Example 24],224 to 226 °C
12,CCc1nn(-c2c(Cl)cc(Cl)cc2Cl)c2nc(Cc3ccc(O)c([N+](=O)[O-])c3)[nH]c(=O)c12 [Example 26],263 to 266 °C
13,CCc1nn(-c2c(Cl)cc(Cl)cc2Cl)c2nc(Cc3c[nH]c4ccc(OC)cc34)[nH]c(=O)c12 [Example 40],295 to 298 °C
14,CCc1nn(-c2c(Cl)cc(Cl)cc2Cl)c2nc(Cc3cccc(CC(=O)O)c3)[nH]c(=O)c12 [Example 47],192 to 194 °C
15,CC(C)c1nn(-c2c(Cl)cc(Cl)cc2Cl)c2nc(Cc3ccc(N)cc3)[nH]c(=O)c12 [Example 52],223 to 225 °C
16,COc1cc(Cc2nc3c(c(C(C)C)nn3-c3c(Cl)cc(Cl)cc3Cl)c(=O)[nH]2)ccc1N [Example 54],238 to 240 °C
17,CC(C)c1nn(-c2c(Cl)cc(Cl)cc2Cl)c2nc(Cc3ccc(N)c(O)c3)[nH]c(=O)c12 [Example 55],210 to 217 °C (dec.)
18,CC(C)c1nn(-c2c(Cl)cc(Cl)cc2Cl)c2nc(Cc3ccc(Br)cc3)[nH]c(=O)c12 [Example 59],229 to 230 °C
19,CC(C)c1nn(-c2c(Cl)cc(Cl)cc2Cl)c2nc(Cc3ccccn3)[nH]c(=O)c12 [Example 60],214 to 215 °C
20,CC(C)c1nn(-c2c(Cl)cc(Cl)cc2Cl)c2nc(Cc3ccncc3)[nH]c(=O)c12 [Example 61],273 to 275 °C

row,SMILES,melting point
1,Cc1ccc(Cc2nc3c(c(C(C)C)nn3-c3c(Cl)cc(Cl)cc3Cl)c(=O)[nH]2)cc1 [Example 62],205 to 206 °C
2,Cc1ccccc1Cc1nc2c(c(C(C)C)nn2-c2c(Cl)cc(Cl)cc2Cl)c(=O)[nH]1 [Example 63],194 to 195 °C
3,CC(C)c1nn(-c2c(Cl)cc(Cl)cc2Cl)c2nc(Cc3cccnc3)[nH]c(=O)c12 [Example 64],214 to 215 °C
4,Cc1ccncc1Cc1nc2c(c(C(C)C)nn2-c2c(Cl)cc(Cl)cc2Cl)c(=O)[nH]1 [Example 65],225 to 227 °C
5,CNc1ccc(Cc2nc3c(c(C(C)C)nn3-c3c(Cl)cc(Cl)cc3Cl)c(=O)[nH]2)cc1 [Example 67],244 to 246 °C
6,CC(C)c1nn(-c2c(Cl)cc(Cl)cc2Cl)c2nc(Cc3cnccc3Cl)[nH]c(=O)c12 [Example 69],245 to 248 °C
7,O=c1[nH]c(Cc2ccc3[nH]ncc3c2)nc2c1c(C1CC1)nn2-c1c(Cl)cc(Cl)cc1Cl [Example 72],274 to 283 °C
8,O=c1[nH]c(Cc2ccc([N+](=O)[O-])c(O)c2)nc2c1c(C1CC1)nn2-c1c(Cl)cc(Cl)cc1Cl [Example 76],259 to 260 °C
9,COc1ccc(Cc2nc3c(c(C(F)(F)F)nn3-c3c(Cl)cc(Cl)cc3Cl)c(=O)[nH]2)cc1 [Example 82],263 to 265 °C
10,"CC(C)c1[nH]n(-c2c(Cl)cc(Cl)cc2Cl)c2nc(Cc3ccc(N(C(=O)OC(C)(C)C)C(=O)[C@@H]4CCCN4)cc3)nc(=O)c1-2 [Example 113, (S)-1-(2,4,6-Trichlorophenyl)-3-isopropyl-6-(4-(N-t-butoxycarbonylprolinamido)benzyl)pyrazolo[3,4-d]pyrimidin-4-one]",225 to 226 °C
11,"CCOC(=O)Cc1ccc(Cc2nc3n(-c4c(Cl)cccc4Cl)[nH]c(C(C)C)c-3c(=O)n2)cc1 [Example 122, 1-(2,6-Dichlorophenyl)-3-isopropyl-6-(4-(carbethoxymethyl)benzyl)pyrazolo[3,4-d]pyrimidin-4-one]",168 to 169 °C
12,"CC(C)c1[nH]n(-c2c(Cl)cccc2Cl)c2nc(Cc3ccc(CC(=O)O)cc3)nc(=O)c1-2 [Example 123, 1-(2,6-Dichlorophenyl)-3-isopropyl-6-(4-(carboxymethyl)benzyl)pyrazolo[3,4-d]pyrimidin-4-one]",212 to 214 °C
13,"CC(C)c1[nH]n(-c2c(Cl)cccc2Cl)c2nc(Cc3ccc(CC(=O)NCCN(C)C)cc3)nc(=O)c1-2 [Example 124, 1-(2,6-Dichlorophenyl)-3-isopropyl-6-(4-(2-(N,N-dimethylamino)ethylaminocarbonylmethyl)benzyl)pyrazolo[3,4-d]pyrimidin-4-one]",170 to 172 °C
14,"Cc1cccc(Cl)c1-n1[nH]c(C(C)C)c2c(=O)nc(Cc3ccc(N)cc3)nc1-2 [Example 127, 1-(2-Chloro-6-methylphenyl)-3-isopropyl-6-(4-aminobenzyl)pyrazolo[3,4-d]pyrimidin-4-one]",206 to 207 °C
15,"CC(C)c1[nH]n(-c2c(Cl)cc(Cl)cc2Cl)c2nc(Cc3ccc(NC(=O)OCCN(C)C)cc3)nc(=O)c1-2 [Example 133, 1-(2,4,6-Trichlorophenyl)-3-isopropyl-6-(4-(2-(dimethylamino)ethoxycarbonylamino)benzyl)pyrazolo[3,4-d]pyrimidin-4-one]",218 to 220 °C
16,"COc1cccc(Cc2nc3n(-c4c(Cl)cc(C=O)cc4Cl)[nH]c(C(C)C)c-3c(=O)n2)c1 [Example 138, 1-(2,6-Dichloro-4-formylphenyl)-3-isopropyl-6-(3-methoxybenzyl)pyrazolo[3,4-d]pyrimidin-4-one]",212 to 214 °C
17,CC(C)c1nn(-c2ccccc2Cl)c2nc(Cc3cccc(O)c3)[nH]c(=O)c12 [Example 143],227 to 228 °C
18,CSc1nn(-c2ccccc2Cl)c2nc(Cc3ccc(O)cc3)[nH]c(=O)c12 [Example 149],243 to 244 °C
19,COc1ccc(Cc2nc3c(c(SC)nn3-c3ccccc3Cl)c(=O)[nH]2)cc1 [Example 150],227 to 228 °C
20,CCc1nn(-c2ccccc2Br)c2nc(Cc3cccc(OC)c3)[nH]c(=O)c12 [Example 151],178 to 180 °C

# More lines, now with the values ahead:
row,melting point,SMILES
1,246 to 249 °C,CCc1nn(-c2ccccc2Br)c2nc(Cc3ccc(N)cc3)[nH]c(=O)c12 [Example 152]
2,199 to 201 °C,CCc1nn(-c2ccccc2Br)c2nc(Cc3cccc(O)c3)[nH]c(=O)c12 [Example 153]
3,193 to 194 °C,CCc1nn(-c2ccccc2F)c2nc(Cc3cccc(OC)c3)[nH]c(=O)c12 [Example 154]
4,235 to 237 °C,CCc1nn(-c2ccccc2F)c2nc(Cc3cccc(O)c3)[nH]c(=O)c12 [Example 155]
5,231 to 233 °C,CCc1nn(-c2ccccc2F)c2nc(Cc3ccc(N)cc3)[nH]c(=O)c12 [Example 157]
6,192 to 193 °C,CCc1nn(-c2c(Cl)cc(C(F)(F)F)cc2Cl)c2nc(Cc3cccc(OC)c3)[nH]c(=O)c12 [Example 166]
7,240 to 241 °C,CCc1nn(-c2c(Cl)cc(C(F)(F)F)cc2Cl)c2nc(Cc3ccc(OC)cc3)[nH]c(=O)c12 [Example 168]
8,284 to 286 °C,CCc1nn(-c2c(Cl)cc(Br)cc2Cl)c2nc(Cc3ccc(O)cc3)[nH]c(=O)c12 [Example 169]
9,242 to 244 °C,CCc1nn(-c2c(Cl)cc(Br)cc2Cl)c2nc(Cc3cccc(O)c3)[nH]c(=O)c12 [Example 170]
10,262 to 263 °C,CCc1nn(-c2c(Cl)cccc2Cl)c2nc(Cc3ccc(O)cc3)[nH]c(=O)c12 [Example 171]
11,242 to 244 °C,CCc1nn(-c2c(Cl)cccc2Cl)c2nc(Cc3cccc(O)c3)[nH]c(=O)c12 [Example 173]
12,232 to 233 °C,CCc1nn(-c2c(Cl)cc(Br)cc2Cl)c2nc(Cc3cccc(OC)c3)[nH]c(=O)c12 [Example 174]
13,252 to 253 °C,CCc1nn(-c2c(Cl)cc(Br)cc2Cl)c2nc(Cc3ccc(OC)cc3)[nH]c(=O)c12 [Example 175]
14,220 to 222 °C,CCc1nn(-c2c(Cl)cccc2Cl)c2nc(Cc3ccc(OC)cc3)[nH]c(=O)c12 [Example 176]
15,186 to 187 °C,CCc1nn(-c2c(Cl)cccc2Cl)c2nc(Cc3cccc(OC)c3)[nH]c(=O)c12 [Example 177]
16,267 to 268 °C,CSc1nn(-c2c(F)cccc2Cl)c2nc(Cc3ccc(O)cc3)[nH]c(=O)c12 [Example 178]
17,252 to 253 °C,CSc1nn(-c2c(F)cccc2Cl)c2nc(Cc3cccc(O)c3)[nH]c(=O)c12 [Example 179]
18,255 to 256 °C,CSc1nn(-c2c(Cl)cc(Br)cc2Cl)c2nc(Cc3ccc(O)cc3)[nH]c(=O)c12 [Example 180]
19,193 to 194 °C,COc1ccc(Cc2nc3c(c(SC)nn3-c3c(F)cccc3Cl)c(=O)[nH]2)cc1 [Example 181]
